Results on 19 compounds are retold here after ChEMBL document CHEMBL5634130, “Exploring the structural-activity relationship of hexahydropyrazino[1,2-d]pyrido[3,2-b][1,4]oxazine derivatives as potent and orally-bioavailable PARP7 inhibitors” (Eur J Med Chem, 2023).

Data set [1] relates to NCI-H1373. Nature of the data set: Antiproliferative activity against human NCI-H1373 cells assessed as inhibition of cell viability incubated for 4 days by luminescence based assay. Conditions: NCI-H1373, 96 h.
Data set [2] has as its target T1, Protein mono-ADP-ribosyltransferase TIPARP (Homo sapiens, UniProt Q7Z3E1).
T1 sequence (Q7Z3E1 whole entry): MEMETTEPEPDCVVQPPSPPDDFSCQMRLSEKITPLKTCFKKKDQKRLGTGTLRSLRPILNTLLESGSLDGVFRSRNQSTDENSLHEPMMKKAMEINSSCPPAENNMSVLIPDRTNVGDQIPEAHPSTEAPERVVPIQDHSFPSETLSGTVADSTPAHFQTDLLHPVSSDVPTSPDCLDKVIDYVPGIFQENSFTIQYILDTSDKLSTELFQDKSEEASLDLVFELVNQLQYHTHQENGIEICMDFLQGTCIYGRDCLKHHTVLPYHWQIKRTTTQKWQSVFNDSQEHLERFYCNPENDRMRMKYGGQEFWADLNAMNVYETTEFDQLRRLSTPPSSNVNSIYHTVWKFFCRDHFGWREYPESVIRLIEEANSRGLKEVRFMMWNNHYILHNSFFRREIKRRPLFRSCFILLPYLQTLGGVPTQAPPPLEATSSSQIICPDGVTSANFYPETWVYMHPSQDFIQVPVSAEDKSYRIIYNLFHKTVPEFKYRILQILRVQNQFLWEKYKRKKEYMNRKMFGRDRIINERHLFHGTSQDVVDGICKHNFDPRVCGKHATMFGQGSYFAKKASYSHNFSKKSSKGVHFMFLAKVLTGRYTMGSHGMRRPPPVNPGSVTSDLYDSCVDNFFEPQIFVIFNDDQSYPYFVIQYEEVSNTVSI
In words: Inhibition of PARP7 (unknown origin) using histone as substrate incubated for 1 hr by chemiluminescence assay.

Data set [3] is described as follows: Tmax in fasted ICR mouse at 10 mg/kg, po measured for 24 hrs by LC-MS analysis. The data set is classed as ADME, organism-based. The following applies: in vivo.
The nature of data set [4]: Volume of distribution at steady state in fasted ICR mouse at 2 mg/kg, iv measured for 24 hrs by LC-MS analysis. The format is ADME, organism-based. Conditions: in vivo, read-out: Vdss.
Data set [5] in a line: Clearance in fasted ICR mouse at 2 mg/kg, iv measured for 24 hrs by LC-MS analysis. The format is ADME, organism-based. The following applies: in vivo.
A short description of data set [6]: AUC in fasted ICR mouse at 10 mg/kg, po measured for 24 hrs by LC-MS analysis. The format is ADME, organism-based. The following applies: in vivo.
Data set [7] in a line: AUC in fasted ICR mouse at 2 mg/kg, iv measured for 24 hrs by LC-MS analysis. The format is ADME, organism-based. Conditions: in vivo.
Data set [8] is described as follows: Half life in fasted ICR mouse at 2 mg/kg, iv measured for 24 hrs by LC-MS analysis. The data set is classed as ADME, organism-based. The following applies: in vivo.
Data set [9] in a line: Oral bioavailability in fasted ICR mouse at 10 mg/kg measured for 24 hrs by LC-MS analysis. The data set is classed as ADME, organism-based. Conditions: in vivo.
A short description of data set [10]: Half life in fasted ICR mouse at 10 mg/kg, po measured for 24 hrs by LC-MS analysis. Conditions: in vivo. The data set is classed as ADME, organism-based.
Data set [11] is described as follows: Cmax in fasted ICR mouse at 10 mg/kg, po measured for 24 hrs by LC-MS analysis. The data set is classed as ADME, organism-based. Conditions: in vivo.
The nature of data set [12]: Toxicity in […] SCID mouse model xenografted with human NCI-H1373 cells assessed as animal death at 30 mg/kg, po measured for 21 days. The data set is classed as organism-based. The following applies: in vivo, 504 h, time 21 day.
The subject of the next data set is MDA-MB-436. In words: Antiproliferative activity against human MDA-MB-436 cells assessed as inhibition of cell viability at 0.1 uM incubated for 7 days by luminescence based assay. The format is functional. The following applies: time 7.0 day.
Data set [13] is described as follows: Toxicity in […] SCID mouse model xenografted with human NCI-H1373 cells assessed as body weight loss at 30 mg/kg, po measured for 21 days. The data set is classed as organism-based. Conditions: in vivo, 504 h, time 21 day. A general note: A xenograft is tissue or cells of one species grown in another, often human tumour cells in immunodeficient mice.
In data set [14] the test system is NCI-H1373. Nature of the data set: Antitumor activity against human NCI-H1373 cells xenografted in […] SCID mouse model assessed as tumor growth inhibition at 30 mg/kg, po administered everyday measured after 21 days relative to control. The format is functional. Conditions: NCI-H1373, 504 h, time 21 day, read-out: TGI.
A further data set concerns RAW264.7. In words: Inhibition of PARP7 in mouse RAW264.7 cells assessed as increase in IFN-beta level incubated for 24 hrs by ELISA. The data set is classed as cell-based.

One may read the IC50 as the midpoint of a concentration-inhibition curve. One may read the Tmax as the time at which the peak concentration occurs. For orientation: clearance means the volume of plasma or blood freed of the substance per unit of time. A lower clearance goes with inefficient removal. One may read the AUC as concentration integrated over time. Broadly, the half-life is how long it takes for the measured level to halve. Low readings indicate rapid decline, high ones slow decline. Usually bioavailability stands for the share of a dose that reaches the circulation, judged against a reference dose that is usually intravenous. A high value points to good availability. What is called Cmax is the maximum level reached in the sampled fluid or tissue.

Molecules are shown by their SMILES. Active and inactive are the calls of the source. No cut-off for these calls is given here.

On to `CC(COCCC(=O)N1CCN2c3ncc(C(F)(F)F)cc3OCC2C1)Nc1cn[nH]c(=O)c1C(F)(F)F` (racemic), for which the half-inhibitory concentration (IC50) in the data set on NCI-H1373 [1] was determined as 175 nM; in [2] it was 10.3 nM.

`O=C(CCOC[C@@H]1CCCN1c1cn[nH]c(=O)c1C(F)(F)F)N1CCN2c3ncc(C(F)(F)F)cc3OC[C@@H]2C1`: the 50% inhibitory concentration (IC50) in the data set on NCI-H1373 [1] amounted to 310 nM; in [2] it was 13.8 nM.

As for `C[C@@H](COCCC(=O)N1CCN2c3ncc(C(F)(F)F)cc3OC[C@@H]2C1)Nc1cn[nH]c(=O)c1C(F)(F)F`, the IC50 in the data set with NCI-H1373 [1] is 77 nM; in [2] it was 1.86 nM. Also, in data set [3], the time to peak (Tmax) came to 15 min. Besides, in data set [4], the Vd came out at 0.104 L/kg. The clearance in data set [5] was found to be 61 mL/min/kg. The AUC in [6] worked out at 306 ng·h/mL. Besides, the area under the curve (AUC) at 24 h in data set [7] came to 274 ng·h/mL. Besides, the half-life in data set [8] is 30 min. In data set [9], this compound showed a bioavailability of 22.3%. In addition, the t1/2 in [10] is 120 min. This compound came in with a Cmax in [11] of 408 ng/mL.

With `C[C@@H](COCCC(=O)N1CCN2c3ncc(F)cc3OCC2C1)Nc1cn[nH]c(=O)c1C(F)(F)F` (some centres undefined), the 50% inhibitory concentration (IC50) in the data set on NCI-H1373 [1] was determined as 694 nM.

Consider `C[C@@H](COCCC(=O)N1CCN2c3ncc(C#N)cc3OCC2C1)Nc1cn[nH]c(=O)c1C(F)(F)F` (some centres undefined), for which, in the data set with NCI-H1373 [1], the 50% inhibitory concentration (IC50) was found to be 255 nM.

Turning to `CC(COC[C@H](C)Nc1cn[nH]c(=O)c1C(F)(F)F)C(=O)N1CCN2c3ncc(C(F)(F)F)cc3OC[C@@H]2C1` (some centres undefined), in the data set on NCI-H1373 [1], the IC50 was 973 nM.

Turning to `O=C(CCOCC1CCN1c1cn[nH]c(=O)c1C(F)(F)F)N1CCN2c3ncc(C(F)(F)F)cc3OC[C@@H]2C1` (some centres undefined), the IC50 was 6 nM in the data set with NCI-H1373 [1] and 0.71 nM in data set [2].

Turning to `C[C@@H](COCCC(=O)N1CCN2c3ncc(C(F)(F)F)cc3OC[C@@H]2C1)Oc1cn[nH]c(=O)c1C(F)(F)F`, the IC50 in the data set with NCI-H1373 [1] worked out at 15 nM; in data set [2], 1.75 nM. In [3], the Tmax was 15 min. Further, the Activity entry in data set [12] and in data set [13] was “Non-Toxic” throughout. In data set [4], the Vd came out at 0.668 L/kg. In [5], this compound showed a clearance of 50.6 mL/min/kg. In data set [6], this compound displayed an AUC of 1835 ng·h/mL. In data set [7], this compound came in with an AUC at 24 h of 682 ng·h/mL. In addition, in data set [8], the half-life is 102 min. In addition, the result with MDA-MB-436 was inactive. The same compound displayed a bioavailability in data set [9] of 53.9%. In data set [10], the t1/2 was determined as 264 min. Besides, the inhibition in vivo at 30 mg/kg in the data set on NCI-H1373 [14] was 62.4%. In data set [11], this compound returned a Cmax of 1840 ng/mL. In the data set on RAW264.7, the inhibition result is “Active”.

In the case of `O=C(CCOC[C@@H]1CCN1c1cn[nH]c(=O)c1C(F)(F)F)N1CCN2c3ncc(Cl)cc3OC[C@@H]2C1`, the half-inhibitory concentration (IC50) in the data set with NCI-H1373 [1] turned out to be 14.8 nM; in [2], 0.66 nM. Besides, the time to peak (Tmax) in data set [3] turned out to be 15 min. Moreover, the Vd in [4] is 0.638 L/kg. In [5], this compound registered a clearance of 49.4 mL/min/kg. In data set [6], this compound gave an area under the curve (AUC) of 544 ng·h/mL. This compound registered an AUC at 24 h in [7] of 421 ng·h/mL. The same compound had a half-life in data set [8] of 36 min. Besides, the result with MDA-MB-436 was inactive. Besides, in data set [9], the bioavailability was 25.8%. This compound also gave a t1/2 in [10] of 126 min. In data set [11], the peak concentration (Cmax) came out at 400 ng/mL. Moreover, in the data set with RAW264.7, the inhibition entry is “Active”.

Regarding `Cc1cnc2c(c1)OCC1CN(C(=O)CCOC[C@H](C)Nc3cn[nH]c(=O)c3C(F)(F)F)CCN21` (some centres undefined), the 50% inhibitory concentration (IC50) with NCI-H1373 [1] came to 954 nM.

`C[C@@H](COCCC(=O)N1CCN2c3ncc(C(F)(F)F)cc3OCC2C1)Nc1cn[nH]c(=O)c1C(F)(F)F` (mixture of isomers): the IC50 in the data set with NCI-H1373 [1] was 88 nM; in data set [2], 2.1 nM.

Regarding `O=C(CCOC1CC(Nc2cn[nH]c(=O)c2C(F)(F)F)C1)N1CCN2c3ncc(C(F)(F)F)cc3OC[C@@H]2C1` (some centres undefined), the results for the half-maximal inhibitory concentration (IC50) (in the data set on NCI-H1373 [1]; in [2]) were 398 nM and 63 nM, respectively.

For the compound `C[C@@H](CN1CCC(C(=O)N2CCN3c4ncc(C(F)(F)F)cc4OC[C@@H]3C2)C1)Nc1cn[nH]c(=O)c1C(F)(F)F` (some centres undefined), in the data set on NCI-H1373 [1], the IC50 is 908 nM.

Consider `CC(COCCC(=O)N1CCN2c3ncc(C(F)(F)F)cc3OC[C@@H]2C1)Nc1cn[nH]c(=O)c1C(F)(F)F` (mixture of isomers), for which the IC50 in the data set with NCI-H1373 [1] turned out to be 156 nM; in data set [2], 9.4 nM.

With `CC(COCCC(=O)N1CCN2c3ncc(C(F)(F)F)cc3OC[C@H]2C1)Nc1cn[nH]c(=O)c1C(F)(F)F` (mixture of isomers), the figures for the half-maximal inhibitory concentration (IC50) (in the data set with NCI-H1373 [1]; in data set [2]) were 180 nM and 12.8 nM, respectively.

With `C[C@@H](COc1cnc(N2CCN3c4ncc(C(F)(F)F)cc4OC[C@@H]3C2)nc1)Nc1cn[nH]c(=O)c1C(F)(F)F`, the half-inhibitory concentration (IC50) in the data set on NCI-H1373 [1] is 1950 nM.

In the case of `C[C@@H](COCCC(=O)N1CCN2c3ncc(Cl)cc3OCC2C1)Nc1cn[nH]c(=O)c1C(F)(F)F` (some centres undefined), the IC50 in the data set with NCI-H1373 [1] was determined as 106 nM.

Consider `C[C@@H](COCCC(=O)N1CCN2c3ncc(C(F)(F)F)cc3OC[C@H]2C1)Nc1cn[nH]c(=O)c1C(F)(F)F`, for which the IC50 was 85 nM with NCI-H1373 [1] and 3.3 nM in [2].

For the compound `C[C@@H](CN1CC(C(=O)N2CCN3c4ncc(C(F)(F)F)cc4OC[C@@H]3C2)C1)Nc1cn[nH]c(=O)c1C(F)(F)F`, the 50% inhibitory concentration (IC50) in the data set with NCI-H1373 [1] was > 3000 nM.
